The source of these data is PubChem BioAssay (NCI).

Test systems include HCC-2998 colon; HCT-116 colon; K-562 leukemia; LOX IMVI melanoma; NCI-H226 lung; NCI-H460 lung; OVCAR-3 ovarian; OVCAR-5 ovarian; SF-539 CNS; SNB-19 CNS.
Assay in all cases: growth of human tumour cells (NCI), 48 h

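Briefly, cells in 96-well plates were exposed to five compound concentrations for 48 h, and endpoints were estimated by linear interpolation. GI50 = concentration required for 50% inhibition of growth. The concentration for full growth arrest is given as TGI.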

Regarding `COc1ccc([N+](=O)[O-])cc1[I+]c1cc([N+](=O)[O-])ccc1OC`, the TGI is over 100 µM in the assay with HCC-2998 colon; over 100 µM in the assay with HCT-116 colon; over 100 µM in the assay on K-562 leukemia; 73.1 µM in the assay on LOX IMVI melanoma; over 100 µM with NCI-H226 lung; 80.3 µM with NCI-H460 lung. For the same compound, the TGI with OVCAR-3 ovarian, with OVCAR-5 ovarian, in the assay on SF-539 CNS and with SNB-19 CNS was over 100 µM in each case.
Turning to `O=C(Nc1ccc(-n2cc(-c3ccncc3)c(-c3ccc(O)c(Cl)c3)n2)cc1)c1ccc(Cl)c(Cl)c1`, the GI50 with HCC-2998 colon was 2.03 µM; in the assay on HCT-116 colon, 1.23 µM; in the assay with K-562 leukemia, 0.966 µM; with LOX IMVI melanoma, 0.779 µM; with NCI-H226 lung it was over 32.5 µM; with NCI-H460 lung, 1.58 µM. In addition, the GI50 in the assay with OVCAR-3 ovarian was 2.11 µM; in the assay on OVCAR-5 ovarian, over 32.5 µM; with SF-539 CNS it was 0.656 µM; in the assay with SNB-19 CNS it was 2.67 µM. Besides, the TGI in the assay on HCC-2998 colon was over 32.5 µM; with HCT-116 colon, over 32.5 µM; in the assay on K-562 leukemia, over 32.5 µM; in the assay on LOX IMVI melanoma, 2.88 µM; with NCI-H226 lung it was over 32.5 µM; with NCI-H460 lung, over 32.5 µM. Besides, the TGI with OVCAR-3 ovarian was over 32.5 µM; in the assay on OVCAR-5 ovarian, over 32.5 µM; in the assay with SF-539 CNS, 2.25 µM; with SNB-19 CNS, over 32.5 µM.
As for `CCCCC[C@H]1CC=CC(=O)O1`, the TGI in the assay with HCC-2998 colon is 19.7 µM; in the assay on HCT-116 colon, 12.9 µM; in the assay with K-562 leukemia, over 100 µM; with LOX IMVI melanoma, 18.1 µM; in the assay on NCI-H226 lung, 23.9 µM; in the assay with NCI-H460 lung it was 21.2 µM. The TGI was found to be 21.9 µM in the assay with OVCAR-3 ovarian, 70 µM in the assay on OVCAR-5 ovarian, 4.82 µM in the assay on SF-539 CNS and 28.2 µM with SNB-19 CNS.
For `COc1cccc(/C=N/[N-]C(N)=O)c1[O-].[OH3+].[Zn+2]`, the TGI in the assay on HCC-2998 colon, with HCT-116 colon, with K-562 leukemia, in the assay on LOX IMVI melanoma, in the assay with NCI-H226 lung and in the assay on NCI-H460 lung was over 100 µM each time. The TGI in the assay with OVCAR-3 ovarian, in the assay on OVCAR-5 ovarian, with SF-539 CNS and in the assay on SNB-19 CNS was over 100 µM in each case.
In the case of `NC(=O)OCc1c(O)c2c(c(O)c1COC(N)=O)C(=O)C=CC2=O`, the TGI with HCC-2998 colon, in the assay on HCT-116 colon, in the assay on K-562 leukemia, in the assay on NCI-H226 lung, with OVCAR-3 ovarian and in the assay with OVCAR-5 ovarian was over 100 µM in each case. Besides, the TGI in the assay on SF-539 CNS was over 100 µM.
`Cc1ccc(CCCC(=O)O)cc1C`: the TGI in the assay with HCT-116 colon, with K-562 leukemia, in the assay on LOX IMVI melanoma, in the assay on NCI-H226 lung, in the assay on NCI-H460 lung and in the assay on OVCAR-3 ovarian was over 100 µM throughout. The TGI with OVCAR-5 ovarian and in the assay on SNB-19 CNS was over 100 µM throughout.
Regarding `CSc1nc(NC2OC(CO)C(O)C(O)C2O)c(N)c(=O)n1C` (stereo not given), the TGI with HCC-2998 colon, with HCT-116 colon, in the assay with K-562 leukemia, in the assay with LOX IMVI melanoma, with NCI-H226 lung and in the assay on NCI-H460 lung was over 100 µM in each case. In addition, the TGI in the assay with OVCAR-3 ovarian, in the assay on OVCAR-5 ovarian, with SF-539 CNS and in the assay on SNB-19 CNS was over 100 µM each time.
For the compound `O=C1c2ccccc2-c2ccc(N(Cc3ccc(Br)cc3)Cc3ccc(Br)cc3)cc21`, the TGI in the assay with HCC-2998 colon, in the assay on HCT-116 colon, in the assay with K-562 leukemia, in the assay with LOX IMVI melanoma, in the assay on NCI-H226 lung and with NCI-H460 lung was over 100 µM in each case. The TGI with OVCAR-3 ovarian, in the assay on OVCAR-5 ovarian, with SF-539 CNS and in the assay with SNB-19 CNS was over 100 µM throughout.
Regarding `CCCCCCCCCCCCCCCc1ccc(C(=O)C[n+]2ccccc2)cc1`, the GI50 was 1.27 µM with HCC-2998 colon; 0.348 µM in the assay with LOX IMVI melanoma; 4.15 µM in the assay on NCI-H226 lung; 0.546 µM in the assay with NCI-H460 lung; 1.79 µM in the assay on OVCAR-3 ovarian. Also, the TGI is 2.55 µM in the assay on HCC-2998 colon; 1.19 µM in the assay with LOX IMVI melanoma; over 100 µM with NCI-H226 lung; 1.78 µM in the assay on NCI-H460 lung; 3.64 µM in the assay on OVCAR-3 ovarian.
Take `CCOC(=O)c1c(C)n(-c2ccc(C)cc2)c2c1cc(O)c1[nH]c3c(c12)CCCC3`: the TGI with HCC-2998 colon stood at 34.1 µM; with HCT-116 colon it was 92.6 µM; in the assay with K-562 leukemia, 48.8 µM; in the assay with LOX IMVI melanoma it was 30.2 µM; in the assay with NCI-H226 lung, 60 µM; with NCI-H460 lung, 84.5 µM. For the same compound, the TGI was 51.1 µM with OVCAR-3 ovarian, over 100 µM in the assay on OVCAR-5 ovarian, 30.2 µM in the assay with SF-539 CNS and 67.5 µM with SNB-19 CNS.
Take `O=C(c1no[n+]([O-])c1C(=O)c1csc2ccccc12)c1csc2ccccc12`: the TGI in the assay with HCC-2998 colon was 18.4 µM; in the assay with HCT-116 colon, 25.9 µM; in the assay on K-562 leukemia, 3.73 µM; in the assay with LOX IMVI melanoma it was 5.37 µM; with NCI-H226 lung it was 35 µM; with NCI-H460 lung, 28.3 µM. Moreover, the TGI with OVCAR-3 ovarian turned out to be 3.78 µM; in the assay on OVCAR-5 ovarian, 35.4 µM; with SF-539 CNS it was 8.36 µM; with SNB-19 CNS, 32.3 µM.
On to `COc1ccc(C2C(Cl)C(=O)N2NC(=O)c2ccc(NC(C)=O)cc2)cc1OC` (stereo not given), for which the TGI in the assay with HCC-2998 colon, with HCT-116 colon, with K-562 leukemia, in the assay with NCI-H226 lung, in the assay with NCI-H460 lung and with OVCAR-3 ovarian was over 100 µM each time. The TGI in the assay on OVCAR-5 ovarian, in the assay with SF-539 CNS and in the assay with SNB-19 CNS was over 100 µM in each case.
As for `CNC1=C(C)C(=O)C2=C(C1=O)C(COC(N)=O)C1(OC)C3NC3CN21` (stereo not given), the TGI in the assay on HCC-2998 colon is 1.82 µM; in the assay with HCT-116 colon it was over 100 µM; with K-562 leukemia, over 100 µM; with LOX IMVI melanoma, 1.41 µM; in the assay on NCI-H226 lung, 4.66 µM; with NCI-H460 lung, 0.251 µM. Also, the TGI in the assay on OVCAR-3 ovarian worked out at 21.6 µM; in the assay on OVCAR-5 ovarian, 50.2 µM; in the assay with SF-539 CNS, 1.92 µM.
As for `N=C(N)c1ccc(-c2ccc(-c3ccccc3)o2)cc1`, the GI50 in the assay with HCC-2998 colon was 1.51 µM; in the assay on K-562 leukemia, 2.22 µM; in the assay on NCI-H226 lung it was 7.93 µM; in the assay on NCI-H460 lung, 1.93 µM; in the assay on OVCAR-3 ovarian, 3.3 µM; with OVCAR-5 ovarian it was 2.11 µM. The GI50 is 1.65 µM with SF-539 CNS and 2.54 µM in the assay on SNB-19 CNS. The TGI in the assay with HCC-2998 colon amounted to 3.15 µM; with K-562 leukemia, 4.99 µM; with NCI-H226 lung, 27.7 µM; in the assay on NCI-H460 lung, 3.65 µM; with OVCAR-3 ovarian, 13.4 µM; in the assay on OVCAR-5 ovarian it was 6.95 µM. In addition, the TGI amounted to 3.38 µM in the assay with SF-539 CNS and 6.83 µM in the assay on SNB-19 CNS.
With `NC(N)=NCCCS(=O)(=O)Nc1ccc(Nc2c3ccccc3nc3cc([N+](=O)[O-])ccc23)cc1`, the TGI with HCC-2998 colon is 44.1 µM; in the assay on HCT-116 colon, 63.5 µM; in the assay on K-562 leukemia it was over 89.7 µM; with LOX IMVI melanoma, over 75.7 µM; in the assay on NCI-H226 lung, 45.5 µM; with NCI-H460 lung, 33 µM. The TGI in the assay on OVCAR-3 ovarian was 66.4 µM; in the assay with OVCAR-5 ovarian, over 74.1 µM; in the assay on SF-539 CNS, 52.1 µM; in the assay on SNB-19 CNS, 28.8 µM.
Regarding `CC(C)=CCC/C(C)=C/CC/C(C)=C/C(O)c1ccccc1` (stereo not given), the TGI with HCT-116 colon was 32.2 µM; with K-562 leukemia, over 100 µM; in the assay on LOX IMVI melanoma, 35.9 µM; in the assay on NCI-H226 lung it was 46.2 µM; in the assay with NCI-H460 lung, 35.3 µM; in the assay with OVCAR-3 ovarian it was 36.3 µM. Besides, the values for the TGI in the assay on OVCAR-5 ovarian and with SNB-19 CNS were 32.5 µM and 35.3 µM, respectively.
`CC(C)c1cccc(C(C)C)c1NC(=S)Nc1ccccc1`: the TGI with HCC-2998 colon, in the assay on HCT-116 colon, in the assay on K-562 leukemia, in the assay with LOX IMVI melanoma, in the assay with NCI-H226 lung and in the assay on NCI-H460 lung was over 100 µM throughout. For the same compound, the TGI in the assay with OVCAR-3 ovarian, with OVCAR-5 ovarian, with SF-539 CNS and with SNB-19 CNS was over 100 µM throughout.
Consider `CC(=O)Nc1ccc2c(c1)C(=Nc1ccc(C(=O)O)cc1)c1ccccc1-2`, for which the TGI in the assay on HCC-2998 colon is over 100 µM; in the assay on HCT-116 colon it was over 100 µM; with K-562 leukemia it was over 100 µM; in the assay with LOX IMVI melanoma it was over 100 µM; in the assay on NCI-H226 lung it was 87.1 µM; in the assay with NCI-H460 lung it was over 100 µM. Besides, the TGI with OVCAR-3 ovarian, with OVCAR-5 ovarian and in the assay on SNB-19 CNS was over 100 µM in each case.
As for `COC(=O)c1c(OC(C)=O)ccc2c1c1c(n2Cc2ccccc2)C(=O)c2ccccc2C1=O`, the TGI with HCC-2998 colon was 30.3 µM; in the assay on HCT-116 colon, 34.2 µM; in the assay on K-562 leukemia it was 87.3 µM; in the assay on NCI-H226 lung it was 49.3 µM; with NCI-H460 lung it was over 100 µM; in the assay with OVCAR-3 ovarian it was 36.3 µM. For the same compound, the TGI with OVCAR-5 ovarian came out at 41.3 µM; with SF-539 CNS it was 33.7 µM; in the assay on SNB-19 CNS, 97.1 µM.
In the case of `CCN(CC)CCSc1nc2c([N+](=O)[O-])cccc2[nH]1`, the TGI in the assay with HCC-2998 colon, with K-562 leukemia, in the assay with LOX IMVI melanoma, with NCI-H226 lung, with OVCAR-3 ovarian and in the assay with SF-539 CNS was over 100 µM in each case.
Take `N=C1SCCS1`: the TGI in the assay on HCC-2998 colon, in the assay with HCT-116 colon, in the assay with K-562 leukemia, in the assay on LOX IMVI melanoma, with NCI-H226 lung and in the assay on NCI-H460 lung was over 100 µM in each case. Further, the TGI with OVCAR-3 ovarian, in the assay on OVCAR-5 ovarian, in the assay on SF-539 CNS and in the assay with SNB-19 CNS was over 100 µM in each case.
In the case of `Nc1cccc2cc(S(=O)(=O)Nc3ccc(C(=O)O)cc3)ccc12`, the TGI in the assay on HCC-2998 colon, in the assay with HCT-116 colon, in the assay with K-562 leukemia, with LOX IMVI melanoma, in the assay on NCI-H226 lung and with NCI-H460 lung was over 100 µM throughout. The TGI in the assay with OVCAR-3 ovarian, with OVCAR-5 ovarian and in the assay on SNB-19 CNS was over 100 µM throughout.
